Assay results as given in patent US10620112B2, “Measuring HIV reservoirs with optical scanning” (SRI INTERNATIONAL, priority 2015, dated 2020).

Tested on: NL4-3 infected resting CD4+ T cells
Experiment: Intracellular HIV Gag staining (flow cytometry) of resting CD4+ T cells directly infected with NL4-3, day 3 post-infection
Format: cell-based
Details: resting CD4+ T cells infected with NL4-3 by spinoculation, cultured in the presence of the compound, three days postinfection
Protocol: Quiescent CD4+ T cells in the G0/1a stage of the life cycle were enriched by depletion of lineage and activation markers (39, 40). Cells were infected with NL4-3 by spinoculation (32) and cultured in the absence of activating cytokines and in the presence of the protease inhibitor saquinavir (17, 39). dNs were added to infected cultures to overcome SAMHD1− mediated restriction that has been described in resting T cells (33, 41, 42). Three days postinfection cells were stained with LIVE/DEAD aqua and stained for surface markers with antibodies against CD3 (AF700), CD4 (PECy5.5), and CD25/CD69/HLA-DR (APC). Cells were then fixed, permeabilized and stained for HIV Gag. […] Consistent with our previous work, the cultured Gag+ cells lacked the activation markers CD25, CD69 and HLA-DR at day 3. […] The level of integrated HIV DNA was determined to be 0.32 copies per cell in the bulk culture (termed whole culture, WC). Gag+CD4− cells contained 1.2 HIV proviruses per cell, which represented an enrichment of integrated HIV DNA in Gag+CD4− cells compared to Gag− cell populations (Gag−CD4− cells contained 0.013 copies, Gag−CD4int cells contained 0.11 copies, and Gag− CD4+ cells contained 0.24 copies of integrated HIV DNA per cell).

## Cc1nnc(C(=O)NC(C)(C)c2nc(C(=O)NCc3ccc(F)cc3)c(O)c(=O)n2C)o1 [raltegravir]
  Gag staining of infected cells: very low Gag staining
